Data taken from US10927096B2, “Ester substituted ion channel blockers and methods for use” (Nocion Therapeutics, Inc., priority 2019, dated 2021).
pIC50: −log10 of the molar value.

Experiments:
NaV1.7 [1] = target: T1, NaV1.7 (Homo sapiens, UniProt Q15858); experiment: Automated patch clamp (Qube 384), external block of NaV1.7 in HEK293 cells; type: cell-based; details: compound in external solution, read-out: NaV1.7 Extracellular Inhibition
T1 construct: expressed in transfected cells; host or cells: HEK293, tetracycline-inducible
Description: (§1) NaV1.7 was expressed in HEK293 cells upon induction with tetracycline. Cells were cultured in DMEM containing 10% dialyzed Fetal Bovine Serum (VWR, Radnor, Pa.), 1% Glutamax (VWR, Radnor, Pa.), 1% Penicillin-Streptomycin (VWR, Radnor, Pa.), 100 mg/L Hygromycin (Thermo Fisher Scientific, Waltham, Mass. and 5 mg/L Blasticidin (Alfa Aesar, Haverhill, Mass.). Cells were grown and maintained at 37° C. in a humidified environment containing 10% CO2 in air. Cells were detached from the culture flask for passage and harvested using 0.05% Trypsin-EDTA (Thermo Fisher Scientific, Waltham, Mass.). To induce NaV1.7, cells were induced with tetracycline (0.1-1 μg/mL, IBI Scientific, Peosta, Iowa) the day before recording.
(§2) Before experiments, cells were washed with DPBS (VWR, Radnor, Pa.), digested with Detachin (VWR Radnor, Pa.) and then triturated 10 times in CHO Serum-Free Media (VWR Radnor, Pa.) to resuspend the cells and to break apart cell aggregates. Cells were counted and the final concentration was set at 2-5 million cells per mL.
(§3) The intracellular solution contained the following: 140 mM CsF, 1 mM/5 mM EGTA/CsOH, 10 mM HEPES, 10 mM NaCl, adjusted to pH 7.3 with CsOH, and osmolality to 320 with sucrose. The external solution contained the following: 145 mM NaCl, 4 mM KCl, 1 mM MgCl2, 2 mM CaCl2, 10 mM HEPES, 10 mM Glucose, adjusted to pH 7.4 with CsOH and osmolality to 305 with sucrose. All chemicals are from Sigma-Aldrich, St. Louis, Mo. In order to test the degree of internal block by test compounds, the compounds were dissolved in internal solution at the indicated test concentration. […] In order to test the degree of external block by test compounds the compounds were dissolved in external solution at the indicated test concentration.
(§4) Automated Patch Clamps were performed on Qube 384 (Sophion Bioscience, Woburn Mass.) with multihole Qchips at a temperature setting of 22 degrees. The whole cells configuration was formed with default Qube seal and break-in parameter. The membrane potential was held at −100 mV before the voltage protocol began. Two voltage protocols were followed.
(§5) Step 1: Cells were held at −100 mV with a depolarized pulse to −20 mV for 10 ms, the interval was set at 5 s. Currents were corrected by default leak subtraction from every pulse. The duration was set at 5 mins.
(§6) Step 2: Cells were held at −100 mV with a depolarized pulse to −20 mV for 10 ms. The frequency was 5 Hz. Currents were corrected by leak subtraction calculated before step 2. The duration was set at 4 mins.
After Step 2, the external solution was changed with solutions containing test compounds. Qchips were held at −100 mV without pulsing. The total solution switching time was 8 minutes. After the external solution exchange, cells were recorded using the same procedure as step 2 for 10 minutes.
Data analysis was performed by Sophion Analyzer. Data were corrected with control cells (Non-Drug). The IC50 data were plotted with DR-plots/Hill function (a dose-response plot with a Hill fit).
Representative examples of the invention were tested for extracellular inhibition of NaV 1.7 in the automated patch clamp assay. Activity Range is reported as IC50: “++++” (<1 μM), “+++” (1-10 μM), “++” (10-30 μM) or “+” (>30 μM).

[2] = PAMPA membrane permeability assay; type: physicochemical; details: pH 7.4 buffer, GIT lipid, 4 hours incubation
Method in brief: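 Passive diffusion across a GIT-lipid-painted artificial membrane, with compounds at 50 uM in pH 7.4 buffer in the donor well and 4 h incubation. Donor, acceptor and reference solutions were quantified by UV spectra, and permeability coefficients (10^−6 cm/s) were derived from AUCs. Results are binned as + (<0.1), ++ (0.1-2.0), +++ (2.0-10.0), ++++ (>10.0).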

NaV1.7 [3] = target: T1, NaV1.7; experiment: Automated patch clamp (Qube 384), internal block of NaV1.7 in HEK293 cells; type: cell-based; details: compound in internal solution, read-out: NaV1.7 Intracellular Inhibition
Description: as §1, §2, §3, §4, §5, §6
After Step 2, the Qchip was removed from the recording chamber. The internal solution was changed with solutions containing test compounds. Qchips were held at −100 mV without pulsing after being replaced in the recording chamber. The total solution switching time was 8 minutes. After the internal solution exchange, Cells were recorded and step 2 for repeated for 10 minutes.
Data analysis was performed by Sophion Analyzer. Cells were filtered with minimum 50 MOhm seal resistance and minimum 5 nA starting current. The rundown of the currents was corrected with control cells (Non-Drug). The remaining was calculated by averaging last 3 points in the end of experiments. The base line was calculated as the average of last 3 points of Step 2. IC50 curves were plotted with DR-plots/Hill function (a dose-response plot with a Hill fit).
Representative examples of the invention were tested for intracellular inhibition of NaV 1.7 in the automated patch clamp assay. Activity Range is reported as IC50: “++++” (<1 μM), “+++” (1-3 μM), “++” (3-10 μM) or “+” (10-30 μM).

T1 sequence (Q15858 whole entry): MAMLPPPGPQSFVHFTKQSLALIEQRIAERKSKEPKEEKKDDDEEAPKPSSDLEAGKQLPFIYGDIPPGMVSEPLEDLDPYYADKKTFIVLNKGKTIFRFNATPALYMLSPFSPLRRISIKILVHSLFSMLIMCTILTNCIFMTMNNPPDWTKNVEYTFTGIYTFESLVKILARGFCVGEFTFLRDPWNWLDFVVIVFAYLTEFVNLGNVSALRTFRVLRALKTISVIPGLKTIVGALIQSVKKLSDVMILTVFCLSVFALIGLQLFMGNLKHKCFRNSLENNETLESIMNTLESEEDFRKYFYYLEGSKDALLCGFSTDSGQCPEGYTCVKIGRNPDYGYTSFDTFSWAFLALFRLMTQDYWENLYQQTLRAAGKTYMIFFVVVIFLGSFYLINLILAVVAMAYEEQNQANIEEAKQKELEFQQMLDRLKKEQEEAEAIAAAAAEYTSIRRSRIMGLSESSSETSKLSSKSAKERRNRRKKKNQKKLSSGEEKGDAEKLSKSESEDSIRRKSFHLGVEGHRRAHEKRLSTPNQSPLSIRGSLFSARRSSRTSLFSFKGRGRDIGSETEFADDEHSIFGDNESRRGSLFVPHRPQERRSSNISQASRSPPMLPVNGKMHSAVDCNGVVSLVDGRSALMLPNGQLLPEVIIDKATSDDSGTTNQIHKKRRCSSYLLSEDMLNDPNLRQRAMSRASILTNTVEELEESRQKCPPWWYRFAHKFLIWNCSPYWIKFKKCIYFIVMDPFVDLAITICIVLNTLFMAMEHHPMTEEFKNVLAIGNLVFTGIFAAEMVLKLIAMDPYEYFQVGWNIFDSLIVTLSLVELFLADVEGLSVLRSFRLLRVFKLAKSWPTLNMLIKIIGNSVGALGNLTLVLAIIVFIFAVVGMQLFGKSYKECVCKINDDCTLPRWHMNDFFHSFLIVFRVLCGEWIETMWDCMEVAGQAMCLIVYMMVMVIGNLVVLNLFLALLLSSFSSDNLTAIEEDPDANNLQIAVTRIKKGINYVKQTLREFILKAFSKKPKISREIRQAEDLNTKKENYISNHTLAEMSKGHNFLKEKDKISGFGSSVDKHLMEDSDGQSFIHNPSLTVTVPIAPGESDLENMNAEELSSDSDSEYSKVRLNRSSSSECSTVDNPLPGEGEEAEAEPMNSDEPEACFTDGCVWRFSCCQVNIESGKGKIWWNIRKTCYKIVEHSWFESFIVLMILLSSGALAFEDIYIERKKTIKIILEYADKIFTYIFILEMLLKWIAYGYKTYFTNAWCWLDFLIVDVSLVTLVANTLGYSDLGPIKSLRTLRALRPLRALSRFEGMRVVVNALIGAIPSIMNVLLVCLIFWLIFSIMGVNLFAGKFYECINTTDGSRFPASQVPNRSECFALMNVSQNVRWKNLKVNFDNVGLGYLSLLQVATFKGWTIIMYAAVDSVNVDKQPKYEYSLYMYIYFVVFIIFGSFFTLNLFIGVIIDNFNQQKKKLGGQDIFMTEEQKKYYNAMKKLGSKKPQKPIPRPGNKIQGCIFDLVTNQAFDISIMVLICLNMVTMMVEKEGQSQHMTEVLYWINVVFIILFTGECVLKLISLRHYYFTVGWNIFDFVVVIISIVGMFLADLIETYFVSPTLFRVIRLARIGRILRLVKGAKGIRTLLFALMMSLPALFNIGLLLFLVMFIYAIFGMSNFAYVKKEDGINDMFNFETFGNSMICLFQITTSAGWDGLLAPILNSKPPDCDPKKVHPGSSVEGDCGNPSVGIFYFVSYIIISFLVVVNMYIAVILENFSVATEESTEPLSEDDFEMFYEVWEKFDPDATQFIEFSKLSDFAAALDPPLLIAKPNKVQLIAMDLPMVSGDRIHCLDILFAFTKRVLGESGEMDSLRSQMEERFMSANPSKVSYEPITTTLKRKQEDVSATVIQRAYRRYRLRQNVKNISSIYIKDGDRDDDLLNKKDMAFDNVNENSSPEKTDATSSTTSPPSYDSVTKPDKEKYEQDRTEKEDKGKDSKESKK

pIC50 (NaV1.7 [1])	PAMPA (10^−6 cm/s) [2]	pIC50 (NaV1.7 [3])	Compound
5.00 to 6.00	+ (<0.1 10^−6 cm/s)	> 6.00	CCOC(=O)c1cccc(C)c1NC(=O)C[N+]1(Cc2ccccc2)CCCC1.[Br-] [Compound 9]
< 4.52	+ (<0.1 10^−6 cm/s)	> 6.00	CC[N+]1(CC(=O)Nc2c(C)cccc2C(=O)OC)CCCC(C(=O)OCC(C)C)C1.[I-] (stereo not drawn) [Compound 23]
< 4.52	+ (<0.1 10^−6 cm/s)	> 6.00	COC(=O)c1cccc(C)c1NC(=O)C[N+]1(Cc2ccccc2)CCCC(C(N)=O)C1.[Br-] (stereo not drawn) [Compound 30]
< 4.52	+ (<0.1 10^−6 cm/s)	> 6.00	COC(=O)c1cccc(C)c1NC(=O)C[N+]1(Cc2ccccc2)CCCC(C(=O)NC(C)C)C1.[Br-] (stereo not drawn) [Compound 32]
4.52 to 5.00	+++ (2.0-10.010^−6 cm/s)	5.52 to 6.00	COC(=O)c1cccc(C)c1NC(=O)C[N+]1(Cc2ccccc2)CCCC(C(=O)NCC(C)C)C1.[Br-] (stereo not drawn) [Compound 36]
< 4.52	+ (<0.1 10^−6 cm/s)	> 6.00	CC[N+]1(CC(=O)Nc2c(C)cccc2C(=O)OC)CCCC(C(=O)N2CCCCC2)C1.[I-] (stereo not drawn) [Compound 45]
< 4.52	+ (<0.1 10^−6 cm/s)	5.00 to 5.52	CC[N+]1(CC(=O)Nc2c(C)cccc2C(=O)OC)CCCC(C(N)=O)C1.[I-] (stereo not drawn) [Compound 55]
< 4.52	+ (<0.1 10^−6 cm/s)	5.52 to 6.00	CCC(C(=O)Nc1c(C)cccc1C(=O)OC)[N+]1(Cc2ccccc2)CCCCC1 (stereo not drawn) [Compound 57]
5.00 to 6.00	+++ (2.0-10.010^−6 cm/s)	> 6.00	CCOC(=O)C[N+]1(CC(=O)Nc2c(C)cccc2C(=O)OC)CCCC(c2ccccc2)C1.O=C([O-])C(F)(F)F (stereo not drawn) [Compound 63]
4.52 to 5.00	+ (<0.1 10^−6 cm/s)	> 6.00	COC(=O)c1cccc(C)c1NC(=O)C[n+]1cccc(-c2ccccc2)c1.[Br-] [Compound 66]
< 4.52	++ (0.1-2.0 10^−6 cm/s)	> 6.00	COC(=O)c1cccc(C)c1NC(=O)C[n+]1cccn1C1CCCCC1.[Br-] [Compound 69]
5.00 to 6.00	+ (<0.1 10^−6 cm/s)	5.52 to 6.00	Cc1cccc(C(=O)OC(C)(C)C)c1NC(=O)C[n+]1cccc(-c2ccccc2)c1.[Br-] [Compound 71]
5.00 to 6.00	+ (<0.1 10^−6 cm/s)	5.52 to 6.00	Cc1cccc(C(=O)OC(C)(C)C)c1NC(=O)C[n+]1cccn1C1CCCCC1.[Br-] [Compound 72]
